The assay addresses HPK1 (MAP4K1) (Homo sapiens, UniProt Q92918). As to the kind of experiment: FRET Assay for HPK1 (MAP4K1): one step binding assay, displacement of labeled tracer. Conditions: for inhibition at 1 µM: 1 μM compound; for inhibition at 1 µM / inhibition at 10 µM: FRET ratio 665/620, percent of control; for inhibition at 10 µM: 10 μM compound; for pIC50: dose response curve, nonlinear regression. Put shortly: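 TR-FRET tracer-displacement binding assay. GST-tagged HPK1 (10 nM) and Eu-anti-GST antibody (4 nM) were pre-incubated with compound on ice for 15 min in 50 mM HEPES pH 7.5, 10 mM MgCl2, 1 mM EGTA, 0.01% Brij-35 (3% DMSO final). Kinase Tracer 222 (20 nM) was then added for 1 h at room temperature. IC50 came from nonlinear regression of percent of control; percent inhibition was also given at 1.0 and 10.0 μM.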

pIC50: −log10 of the molar value. Bounds are passed on as bounds.

The term inhibition denotes the relative decrease from the control value, in per cent. Broadly, the pIC50 is −log10 of the IC50, conventionally taken in molar units. Read a high pIC50 as a low IC50.

Sequence of HPK1 (MAP4K1) (Q92918 whole entry): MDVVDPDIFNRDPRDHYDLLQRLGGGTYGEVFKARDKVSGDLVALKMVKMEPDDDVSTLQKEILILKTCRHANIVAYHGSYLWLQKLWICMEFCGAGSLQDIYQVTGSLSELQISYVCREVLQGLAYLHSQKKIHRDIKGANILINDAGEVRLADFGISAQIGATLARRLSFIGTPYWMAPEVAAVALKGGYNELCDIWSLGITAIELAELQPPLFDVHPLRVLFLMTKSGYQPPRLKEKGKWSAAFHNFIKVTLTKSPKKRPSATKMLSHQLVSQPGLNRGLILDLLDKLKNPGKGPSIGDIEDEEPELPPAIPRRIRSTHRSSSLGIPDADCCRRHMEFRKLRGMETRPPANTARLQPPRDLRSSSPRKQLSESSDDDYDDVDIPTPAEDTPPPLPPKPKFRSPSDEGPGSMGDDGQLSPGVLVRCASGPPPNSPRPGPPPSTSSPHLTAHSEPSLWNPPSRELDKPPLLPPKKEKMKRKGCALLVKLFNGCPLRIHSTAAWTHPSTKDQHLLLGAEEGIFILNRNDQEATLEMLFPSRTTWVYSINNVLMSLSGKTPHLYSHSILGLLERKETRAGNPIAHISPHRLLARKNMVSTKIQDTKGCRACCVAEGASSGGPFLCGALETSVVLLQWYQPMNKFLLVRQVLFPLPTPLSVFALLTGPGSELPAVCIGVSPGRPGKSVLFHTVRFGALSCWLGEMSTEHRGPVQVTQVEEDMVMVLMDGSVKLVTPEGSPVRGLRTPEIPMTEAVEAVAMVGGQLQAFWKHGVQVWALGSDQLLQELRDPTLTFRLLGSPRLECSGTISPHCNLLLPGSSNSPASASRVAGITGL

On to `COc1cccc(F)c1-c1cc2c(cn1)NC(=O)/C2=C(/C)Nc1cnn(C)c1` [Example 16, (Z)-5-(2-Fluoro-6-methoxyphenyl)-3-(1-((1-methyl-1H-pyrazol-4-yl)amino)ethylidene)-1H-pyrrolo[2,3-c]pyridin-2(3H)-one], for which the inhibition at 1 µM is 85.3%, the inhibition at 10 µM was 88.9% and the negative-log IC50 (pIC50) is more than 7.30.

With `CNC(=O)Cn1ccc(N/C(C)=C2\C(=O)Nc3cnc(-c4cnccc4C)cc32)n1` [Example 114], the inhibition at 1 µM was 73.3%, the inhibition at 10 µM amounted to 75.9% and the negative-log IC50 (pIC50) is more than 7.30.

Take `COc1cccc(F)c1-c1cc2c(cn1)NC(=O)/C2=C(/C)Nc1cnn([C@@H](C)C#N)c1` [Example 172, (S,Z)-2-(4-((1-(5-(2-Fluoro-6-methoxyphenyl)-2-oxo-1H-pyrrolo[2,3-c]pyridin-3(2H)-ylidene)ethyl)amino)-1H-pyrazol-1-yl)propanenitrile]: the inhibition at 1 µM was 79.2%, the inhibition at 10 µM came to 80.5% and the negative-log IC50 (pIC50) is more than 7.30.

With `C/C(Nc1cc(C)[nH]n1)=C1/C(=O)Nc2cnc(-c3cnccc3C)cc21` [Example 179, (Z)-3-(1-((5-Methyl-1H-pyrazol-3-yl)amino)ethylidene)-5-(4-methylpyridin-3-yl)-1H-pyrrolo[2,3-c]pyridin-2(3H)-one], the inhibition at 1 µM stood at 66.9%, the inhibition at 10 µM worked out at 77.6% and the negative logarithm of the IC50 (pIC50) was more than 7.30.

Take `C/C(Nc1ccc(N2CCNCC2)cc1)=C1/C(=O)Nc2cnc(-c3cnccc3C)cc21` [Example 58, (Z)-5-(4-Methylpyridin-3-yl)-3-(1-((4-(piperazin-1-yl)phenyl)amino)ethylidene)-1H-pyrrolo[2,3-c]pyridin-2(3H)-one]: the inhibition at 1 µM is 71%, the inhibition at 10 µM is 72.7% and the pIC50 was more than 7.30.

Take `COc1cccc(F)c1-c1ccc2c(c1)/C(=C(\C)Nc1cnn(C)c1)C(=O)N2` [Example 10, (Z)-5-(2-Fluoro-6-methoxyphenyl)-3-(1-((1-methyl-1H-pyrazol-4-yl)amino)ethylidene)indolin-2-one]: the inhibition at 1 µM stood at 82.6%, the inhibition at 10 µM was determined as 88.2% and the negative-log IC50 (pIC50) is more than 7.30.

With `C/C(Nc1cc(C)n(C(F)F)n1)=C1/C(=O)Nc2cnc(-c3cnccc3C)cc21` [Example 185, (Z)-3-(1-((1-(Difluoromethyl)-5-methyl-1H-pyrazol-3-yl)amino)ethylidene)-5-(4-methylpyridin-3-yl)-1H-pyrrolo[2,3-c]pyridin-2(3H)-one], the inhibition at 1 µM turned out to be 73.2%, the inhibition at 10 µM turned out to be 73.9% and the pIC50 was more than 7.30.

`C/C(Nc1cc(C)n([C@@H](C)C#N)n1)=C1/C(=O)Nc2cnc(-c3cnccc3C)cc21` [Example 214, (S,Z)-2-(5-Methyl-3-((1-(5-(4-methylpyridin-3-yl)-2-oxo-1H-pyrrolo[2,3-c]pyridin-3(2H)-ylidene)ethyl)amino)-1H-pyrazol-1-yl)propanenitrile]: the inhibition at 1 µM is 69.7%, the inhibition at 10 µM was 67.7% and the negative-log IC50 (pIC50) was more than 7.30.

With `C/C(Nc1cc(C)n(C(C)(C)C#N)n1)=C1/C(=O)Nc2cnc(-c3cnccc3C)cc21` [Example 197, (Z)-2-Methyl-2-(5-methyl-3-((1-(5-(4-Methylpyridin-3-yl)-2-oxo-1H-pyrrolo[2,3-c]pyridin-3(2H)-ylidene)ethyl)amino)-1H-pyrazol-1-yl)propanenitrile], the inhibition at 1 µM was 69.8%, the inhibition at 10 µM is 70.1% and the pIC50 was more than 7.30.

In the case of `C/C(Nc1cn[nH]c1)=C1/C(=O)Nc2cnc(-c3cnccc3C)cc21` [Example 64, (Z)-3-(1-((1H-Pyrazol-4-yl)amino)ethylidene)-5-(4-methylpyridin-3-yl)-1H-pyrrolo[2,3-c]pyridin-2(3H)-one], the inhibition at 1 µM was 83.3%, the inhibition at 10 µM was 91.2% and the pIC50 is more than 7.30.

With `C/C(Nc1ccn(C)n1)=C1/C(=O)Nc2cccc(-c3cnccc3C)c21` [Example 157, (Z)-3-(1-((1-Methyl-1H-pyrazol-3-yl)amino)ethylidene)-4-(4-methylpyridin-3-yl)indolin-2-one], the inhibition at 1 µM worked out at 54.5% and the inhibition at 10 µM stood at 66.5%.

For `C/C(Nc1ccc(N2CCOCC2)cc1)=C1/C(=O)Nc2cnc(-c3cnccc3C)cc21` [Example 59, (Z)-5-(4-Methylpyridin-3-yl)-3-(1-((4-morpholinophenyl)amino)ethylidene)-1H-pyrrolo[2,3-c]pyridin-2(3H)-one], the inhibition at 1 µM turned out to be 78%, the inhibition at 10 µM turned out to be 78.2% and the pIC50 is more than 7.30.

Take `C/C(Nc1cnn(C(C)(C)C#N)c1)=C1/C(=O)Nc2cnc(-c3c(C)noc3C)cc21` [Example 88, (Z)-2-(4-((1-(5-(3,5-Dimethylisoxazol-4-yl)-2-oxo-1H-pyrrolo[2,3-c]pyridin-3(2H)-ylidene)ethyl)amino)-1H-pyrazol-1-yl)-2-methylpropanenitrile]: the inhibition at 1 µM was determined as 74.3%, the inhibition at 10 µM was 87.6% and the pIC50 was 6.30 to 7.00.

On to `COc1ccncc1-c1cc2c(cn1)NC(=O)/C2=C(/C)Nc1ccn(C)n1` [Example 68, (Z)-5-(4-Methoxypyridin-3-yl)-3-(1-((1-methyl-1H-pyrazol-3-yl)amino)ethylidene)-1H-pyrrolo[2,3-c]pyridin-2(3H)-one], for which the inhibition at 1 µM came to 77.5%, the inhibition at 10 µM came out at 75.3% and the pIC50 was more than 7.30.

With `CC(=O)N1CCN(c2ccc(N/C(C)=C3\C(=O)Nc4cnc(-c5cnccc5C)cc43)cn2)CC1` [Example 70, (Z)-3-(1-((6-(4-Acetylpiperazin-1-yl)pyridin-3-yl)amino)ethylidene)-5-(4-methylpyridin-3-yl)-1H-pyrrolo[2,3-c]pyridin-2(3H)-one], the inhibition at 1 µM was determined as 69.5% and the inhibition at 10 µM amounted to 69.9%.

Turning to `C/C(Nc1ccn(CC(C)(C)O)n1)=C1/C(=O)Nc2cnc(-c3c(C)cccc3F)cc21` [Example 141, (Z)-5-(2-Fluoro-6-methylphenyl)-3-(1-((1-(2-hydroxy-2-methylpropyl)-1H-pyrazol-3-yl)amino)ethylidene)-1H-pyrrolo[2,3-c]pyridin-2(3H)-one], the inhibition at 1 µM is 80%, the inhibition at 10 µM was 85.9% and the pIC50 was 7.00 to 7.30.

On to `C/C(Nc1cc(C)nn1C)=C1/C(=O)Nc2cnc(-c3cnccc3C)cc21` [Example 132, (Z)-3-(1-((1,3-Dimethyl-1H-pyrazol-5-yl)amino)ethylidene)-5-(4-methylpyridin-3-yl)-1H-pyrrolo[2,3-c]pyridin-2(3H)-one], for which the inhibition at 1 µM is 81%, the inhibition at 10 µM worked out at 80.9% and the negative-log IC50 (pIC50) was 6.30 to 7.00.

Turning to `C/C(Nc1cc(C)n(CC2CC2)n1)=C1/C(=O)Nc2cnc(-c3cnccc3C)cc21` [Example 189, (Z)-3-(1-((1-(cyclopropylmethyl)-5-methyl-1H-pyrazol-3-yl)amino)ethylidene)-5-(4-methylpyridin-3-yl)-1H-pyrrolo[2,3-c]pyridin-2(3H)-one], the inhibition at 1 µM stood at 73.5%, the inhibition at 10 µM stood at 76.9% and the pIC50 was more than 7.30.

Regarding `COc1cccc(F)c1-c1cnc2c(c1)/C(=C(\C)Nc1cnn(C)c1)C(=O)N2` [Example 56, (Z)-5-(2-Fluoro-6-methoxyphenyl)-3-(1-((1-methyl-1H-pyrazol-4-yl)amino)ethylidene)-1H-pyrrolo[2,3-b]pyridin-2(3H)-one], the inhibition at 1 µM was determined as 66.8%, the inhibition at 10 µM was 75.2% and the negative logarithm of the IC50 (pIC50) is 6.30 to 7.00.

With `C/C(Nc1ccn(C[C@H](C)O)n1)=C1/C(=O)Nc2cnc(-c3cnccc3C)cc21` [Example 133, (S,Z)-3-(1-((1-(2-Hydroxypropyl)-1H-pyrazol-3-yl)amino)ethylidene)-5-(4-methylpyridin-3-yl)-1H-pyrrolo[2,3-c]pyridin-2(3H)-one], the inhibition at 1 µM is 79.9%, the inhibition at 10 µM amounted to 88% and the negative-log IC50 (pIC50) was more than 7.30.

Consider `CC/C(Nc1cnn(C)c1)=C1/C(=O)Nc2cnc(-c3cnccc3C)cc21` [Example 47, (Z)-3-(1-((1-Methyl-1H-pyrazol-4-yl)amino)propylidene)-5-(4-methylpyridin-3-yl)-1H-pyrrolo[2,3-c]pyridin-2(3H)-one], for which the inhibition at 1 µM was 83.5%, the inhibition at 10 µM was found to be 82.5% and the pIC50 is more than 7.30.

Regarding `C/C(Nc1cc[nH]n1)=C1/C(=O)Nc2cnc(-c3cnccc3C)cc21` [Example 122, (Z)-3-(1-((1H-Pyrazol-3-yl)amino)ethylidene)-5-(4-methylpyridin-3-yl)-1H-pyrrolo[2,3-c]pyridin-2(3H)-one], the inhibition at 1 µM was 87.3%, the inhibition at 10 µM stood at 92.6% and the negative logarithm of the IC50 (pIC50) is more than 7.30.

Turning to `CCOc1cccc(F)c1-c1cc2c(cn1)NC(=O)/C2=C(/C)Nc1cnn(CC)c1` [Example 22, (Z)-5-(2-Ethoxy-6-fluorophenyl)-3-(1-((1-ethyl-1H-pyrazol-4-yl)amino)ethylidene)-1H-pyrrolo[2,3-c]pyridin-2(3H)-one], the inhibition at 1 µM is 86.6%, the inhibition at 10 µM was 90.5% and the pIC50 was more than 7.30.

`COc1cccc(F)c1-c1cc2c(cn1)NC(=O)/C2=C(/C)Nc1ccc(N2CCN(C)CC2)cc1` [Example 14, (Z)-5-(2-fluoro-6-methoxyphenyl)-3-(1-((4-(4-methylpiperazin-1-yl)phenyl)amino)ethylidene)-1H-pyrrolo[2,3-c]pyridin-2(3H)-one]: the inhibition at 1 µM worked out at 86.3%, the inhibition at 10 µM stood at 88.3% and the pIC50 was more than 7.30.

Source of the values: patent US20230009626A1 (ICHNOS SCIENCES S.A., priority 2018, published 2023).
